{"source": "patent US20220305012A1", "about": "“L[…] TREATING SLEEP ISSUES” (EISAI R&D MANAGEMENT CO., LTD., priority 2019, published 2022)", "format_in_all_cases": "in vivo, human", "key": {"[1]": {"system": "Subjects Having Insomnia Disorder", "assay": "Example 3: proportion of sWASO responders (pooled Examples 1 and 2)", "protocol": "(§1) The data collected in studies described in Example 1 and Example 2 were pooled and the response of each subject was analyzed."}, "[2]": {"system": "Subjects Having Insomnia Disorder", "assay": "Example 3: proportion of sSOL responders (pooled Examples 1 and 2)", "protocol": "as §1"}, "[3]": {"system": "Subjects Having Insomnia Disorder", "assay": "Example 2: REM latency", "conditions": "both doses (FIG. 16)"}, "[4]": {"assay": "Example 1: plasma concentrations of lemborexant and metabolites", "conditions": "for concentration at 1 month / concentration at 3 month / concentration at 6 month: human, plasma", "protocol": "Month 1 Assessment: Standard safety assessments were performed on the subject. A blood sample was collected for determination of plasma concentration of lemborexant and its metabolites, and the ISI, FSS, PGI-Insomnia, EQ-5D-3L, and eC-SSR were completed.\nMonth 3 Assessment: All assessments conducted at the Month 1 Assessment were repeated.\nMonth 6 Assessment: All assessments conducted at the Month 1 Assessment were repeated, and subjects completed the WPAI-GH."}, "[5]": {"conditions": "First 7 Days, Lemborexant 10 mg"}}, "note": "Where two headings read alike, the source gives them in different places.", "data": [{"smiles": "Cc1ncc(OC[C@@]2(c3cccc(F)c3)C[C@H]2C(=O)Nc2ccc(F)cn2)c(C)n1", "note": "[Lemborexant, (1R,2S)-2-(((2,4-dimethylpyrimidin-5-yl)oxy)methyl)-2-(3-fluorophenyl)-N-(5-fluoropyridin-2-yl)cyclopropanecarboxamide]", "values": [{"measurement": "Subjective Wake After Sleep Onset Responder, Yes, n (%)", "setting": "[1]; Month 1, Lemborexant 5 mg", "result": "121 (23.4) n (%)"}, {"measurement": "Subjective Wake After Sleep Onset Responders, Difference of proportion vs. Placebo", "setting": "[1]; Month 1, Lemborexant 5 mg", "result": 5.61}, {"measurement": "Subjective Wake After Sleep Onset Responder, No, n (%)", "setting": "[1]; Month 1, Lemborexant 10 mg", "result": "368 (71.2) n (%)"}, {"measurement": "Subjective Wake After Sleep Onset Responder, Yes, n (%)", "setting": "[1]; Month 1, Lemborexant 10 mg", "result": "122 (23.6) n (%)"}, {"measurement": "Subjective Wake After Sleep Onset Responders, Difference of proportion vs. Placebo", "setting": "[1]; Month 1, Lemborexant 10 mg", "result": 5.96}, {"measurement": "proportion of sWASO responders compared with placebo", "setting": "[1]; both doses, first 7 days and end of month 1, responder: sWASO of 60 or less minutes and reduction of at least 10 minutes, baseline >60 minutes (Table 31)", "result": "statistically significantly superior"}, {"measurement": "Subjective Sleep Onset Latency Responder, No, (%)", "setting": "[2]; First 7 Days, Lemborexant 5 mg", "result": "(86.3) %"}, {"measurement": "Subjective Sleep Onset Latency Responder, Yes, (%)", "setting": "[2]; First 7 Days, Lemborexant 5 mg", "result": "(12.4) %"}, {"measurement": "Subjective Sleep Onset Latency Responders, Difference of proportion vs. Placebo", "setting": "[2]; First 7 Days, Lemborexant 5 mg", "result": 7.80}, {"measurement": "Subjective Sleep Onset Latency Responder, No, (%)", "setting": "[2]; [5]", "result": "(86.2) %"}, {"measurement": "Subjective Sleep Onset Latency Responder, Yes, (%)", "setting": "[2]; [5]", "result": "(12.6) %"}, {"measurement": "Subjective Sleep Onset Latency Responders, Difference of proportion vs. Placebo", "setting": "[2]; [5]", "result": 7.80}, {"measurement": "Subjective Sleep Onset Latency Responder, No, (%)", "setting": "[2]; Month 1, Lemborexant 5 mg", "result": "(76.8) %"}, {"measurement": "Subjective Sleep Onset Latency Responder, Yes, (%)", "setting": "[2]; Month 1, Lemborexant 5 mg", "result": "(18.4) %"}, {"measurement": "Subjective Sleep Onset Latency Responders, Difference of proportion vs. Placebo", "setting": "[2]; Month 1, Lemborexant 5 mg", "result": 8.28}, {"measurement": "Subjective Sleep Onset Latency Responder, No, (%)", "setting": "[2]; Month 1, Lemborexant 10 mg", "result": "(75.8) %"}, {"measurement": "Subjective Sleep Onset Latency Responder, Yes, (%)", "setting": "[2]; Month 1, Lemborexant 10 mg", "result": "(21.0) %"}, {"measurement": "Subjective Sleep Onset Latency Responders, Difference of proportion vs. Placebo", "setting": "[2]; Month 1, Lemborexant 10 mg", "result": 11.14}, {"measurement": "proportion of sSOL responders compared with placebo", "setting": "[2]; both doses, first 7 days and end of month 1, responder: sSOL of 20 or less minutes provided baseline sSOL at least 30 minutes (Table 30)", "result": "statistically significantly superior"}, {"measurement": "REM latency", "setting": "[3]", "result": "greater mean decrease in REM latency compared to treatment with placebo and zolpidem ER"}, {"measurement": "concentration at 1 month", "setting": "[4]; 10 mg, lemborexant 10 mg dose, Month 1, read-out: Plasma concentration, Mean (SD)", "result": 16.3, "unit": "ng/mL"}, {"measurement": "concentration at 1 month", "setting": "[4]; 10 mg, lemborexant 10 mg dose, Month 1, read-out: Plasma concentration, Median", "result": 15.1, "unit": "ng/mL"}, {"measurement": "concentration at 3 month", "setting": "[4]; 10 mg, lemborexant 10 mg dose, Month 3, read-out: Plasma concentration, Mean (SD)", "result": 15.6, "unit": "ng/mL"}, {"measurement": "concentration at 3 month", "setting": "[4]; 10 mg, lemborexant 10 mg dose, Month 3, read-out: Plasma concentration, Median", "result": 15.1, "unit": "ng/mL"}, {"measurement": "concentration at 6 month", "setting": "[4]; 10 mg, lemborexant 10 mg dose, Month 6, read-out: Plasma concentration, Mean (SD)", "result": 15.2, "unit": "ng/mL"}, {"measurement": "concentration at 6 month", "setting": "[4]; 10 mg, lemborexant 10 mg dose, Month 6, read-out: Plasma concentration, Median", "result": 14.5, "unit": "ng/mL"}, {"measurement": "concentration at 1 month", "setting": "[4]; oral, 5 mg, lemborexant 5 mg dose, Month 1, read-out: Plasma concentration, Mean (SD)", "result": 9, "unit": "ng/mL"}, {"measurement": "concentration at 1 month", "setting": "[4]; oral, 5 mg, lemborexant 5 mg dose, Month 1, read-out: Plasma concentration, Median", "result": 7.6, "unit": "ng/mL"}, {"measurement": "concentration at 3 month", "setting": "[4]; oral, 5 mg, lemborexant 5 mg dose, Month 3, read-out: Plasma concentration, Mean (SD)", "result": 8.4, "unit": "ng/mL"}, {"measurement": "concentration at 3 month", "setting": "[4]; oral, 5 mg, lemborexant 5 mg dose, Month 3, read-out: Plasma concentration, Median", "result": 7.7, "unit": "ng/mL"}, {"measurement": "concentration at 6 month", "setting": "[4]; oral, 5 mg, lemborexant 5 mg dose, Month 6, read-out: Plasma concentration, Mean (SD)", "result": 7.9, "unit": "ng/mL"}, {"measurement": "concentration at 6 month", "setting": "[4]; oral, 5 mg, lemborexant 5 mg dose, Month 6, read-out: Plasma concentration, Median", "result": 6.9, "unit": "ng/mL"}, {"measurement": "Plasma concentration BLQ (<0.0500 ng/mL)", "setting": "[4]; lemborexant 5 mg dose, Month 1", "result": "31 (10.5) n (%)"}, {"measurement": "Plasma concentration BLQ (<0.0500 ng/mL)", "setting": "[4]; lemborexant 5 mg dose, Month 3", "result": "34 (12.6) n (%)"}, {"measurement": "Plasma concentration BLQ (<0.0500 ng/mL)", "setting": "[4]; lemborexant 5 mg dose, Month 6", "result": "45 (18.2) n (%)"}, {"measurement": "Plasma concentration BLQ (<0.0500 ng/mL)", "setting": "[4]; lemborexant 10 mg dose, Month 1", "result": "21 (7.4) n (%)"}, {"measurement": "Plasma concentration BLQ (<0.0500 ng/mL)", "setting": "[4]; lemborexant 10 mg dose, Month 3", "result": "29 (11.2) n (%)"}, {"measurement": "Plasma concentration BLQ (<0.0500 ng/mL)", "setting": "[4]; lemborexant 10 mg dose, Month 6", "result": "33 (14.6) n (%)"}]}]}
